Reference: PubChem BioAssay AID1259407 (Chemical Carcinogenesis Research Information System (CCRIS), 2018)
The source made the active and inactive calls. No rule for the calls is given here.

System: CCRIS mutagenicity, Ames/micronucleus/aberration tests
Test: CCRIS mutagenicity studies
[1] = Test System: AMES SALMONELLA TYPHIMURIUM, Strain/Indicator: TA98, Metabolic Activation: NONE, Method: PREINCUBATION
[2] = Test System: AMES SALMONELLA TYPHIMURIUM, Strain/Indicator: TA100, Metabolic Activation: NONE, Method: PREINCUBATION
[3] = Test System: AMES SALMONELLA TYPHIMURIUM, Strain/Indicator: TA1535, Metabolic Activation: NONE, Method: PREINCUBATION

Measured: mutagenic call

CCC(C)(C)C
inactive: Test System: AMES SALMONELLA TYPHIMURIUM, Strain/Indicator: TA97, Metabolic Activation: HAMSTER, LIVER, S-9, AROCLOR 1254 (10 OR 30%), Method: PREINCUBATION inactive; negative | Test System: AMES SALMONELLA TYPHIMURIUM, Strain/Indicator: TA97, Metabolic Activation: NONE, Method: PREINCUBATION inactive; negative | Test System: AMES SALMONELLA TYPHIMURIUM, Strain/Indicator: TA97, Metabolic Activation: RAT, LIVER, S-9, AROCLOR 1254 (10 OR 30%), Method: PREINCUBATION inactive; negative | Test System: AMES SALMONELLA TYPHIMURIUM, Strain/Indicator: TA98, Metabolic Activation: HAMSTER, LIVER, S-9, AROCLOR 1254 (10%), Method: PREINCUBATION inactive; negative | Test System: AMES SALMONELLA TYPHIMURIUM, Strain/Indicator: TA98, Metabolic Activation: HAMSTER, LIVER, S-9, AROCLOR 1254 (30%), Method: DESICCATOR inactive; negative | Test System: AMES SALMONELLA TYPHIMURIUM, Strain/Indicator: TA98, Metabolic Activation: HAMSTER, LIVER, S-9, AROCLOR 1254 (30%), Method: PREINCUBATION inactive; negative | Test System: AMES SALMONELLA TYPHIMURIUM, Strain/Indicator: TA98, Metabolic Activation: NONE, Method: DESICCATOR inactive; negative | [1] inactive; negative | Test System: AMES SALMONELLA TYPHIMURIUM, Strain/Indicator: TA98, Metabolic Activation: RAT, LIVER, S-9, AROCLOR 1254 (10%), Method: PREINCUBATION inactive; negative | Test System: AMES SALMONELLA TYPHIMURIUM, Strain/Indicator: TA98, Metabolic Activation: RAT, LIVER, S-9, AROCLOR 1254 (30%), Method: DESICCATOR inactive; negative | Test System: AMES SALMONELLA TYPHIMURIUM, Strain/Indicator: TA98, Metabolic Activation: RAT, LIVER, S-9, AROCLOR 1254 (30%), Method: PREINCUBATION inactive; negative | Test System: AMES SALMONELLA TYPHIMURIUM, Strain/Indicator: TA100, Metabolic Activation: HAMSTER, LIVER, S-9, AROCLOR 1254 (10%), Method: PREINCUBATION inactive; negative | Test System: AMES SALMONELLA TYPHIMURIUM, Strain/Indicator: TA100, Metabolic Activation: HAMSTER, LIVER, S-9, AROCLOR 1254 (30%), Method: DESICCATOR inactive; negative | Test System: AMES SALMONELLA TYPHIMURIUM, Strain/Indicator: TA100, Metabolic Activation: HAMSTER, LIVER, S-9, AROCLOR 1254 (30%), Method: PREINCUBATION inactive; negative | Test System: AMES SALMONELLA TYPHIMURIUM, Strain/Indicator: TA100, Metabolic Activation: NONE, Method: DESICCATOR inactive; negative | [2] inactive; negative | Test System: AMES SALMONELLA TYPHIMURIUM, Strain/Indicator: TA100, Metabolic Activation: RAT, LIVER, S-9, AROCLOR 1254 (10%), Method: PREINCUBATION inactive; negative | Test System: AMES SALMONELLA TYPHIMURIUM, Strain/Indicator: TA100, Metabolic Activation: RAT, LIVER, S-9, AROCLOR 1254 (30%), Method: DESICCATOR inactive; negative | Test System: AMES SALMONELLA TYPHIMURIUM, Strain/Indicator: TA100, Metabolic Activation: RAT, LIVER, S-9, AROCLOR 1254 (30%), Method: PREINCUBATION inactive; negative | Test System: AMES SALMONELLA TYPHIMURIUM, Strain/Indicator: TA1535, Metabolic Activation: HAMSTER, LIVER, S-9, AROCLOR 1254 (10 OR 30%), Method: PREINCUBATION inactive; negative | [3] inactive; negative | Test System: AMES SALMONELLA TYPHIMURIUM, Strain/Indicator: TA1535, Metabolic Activation: RAT, LIVER, S-9, AROCLOR 1254 (10 OR 30%), Method: PREINCUBATION inactive; negative

O=[N+]([O-])c1cc2ccccc2c2c([N+](=O)[O-])cccc12
active: Test System: AMES SALMONELLA TYPHIMURIUM, Strain/Indicator: TA98(1,8-DNP6), Metabolic Activation: NONE, Method: STANDARD PLATE active; positive | Test System: AMES SALMONELLA TYPHIMURIUM, Strain/Indicator: TA98(NR), Metabolic Activation: NONE, Method: STANDARD PLATE active; positive | Test System: AMES SALMONELLA TYPHIMURIUM, Strain/Indicator: TA98, Metabolic Activation: NONE, Method: STANDARD PLATE active; positive | Test System: AMES SALMONELLA TYPHIMURIUM, Strain/Indicator: TA100, Metabolic Activation: NONE, Method: STANDARD PLATE active; positive | Test System: AMES SALMONELLA TYPHIMURIUM, Strain/Indicator: YG1021, Metabolic Activation: NONE, Method: STANDARD PLATE active; positive | Test System: AMES SALMONELLA TYPHIMURIUM, Strain/Indicator: YG1024, Metabolic Activation: NONE, Method: STANDARD PLATE active; positive | Test System: AMES SALMONELLA TYPHIMURIUM, Strain/Indicator: YG1026, Metabolic Activation: NONE, Method: STANDARD PLATE active; positive | Test System: AMES SALMONELLA TYPHIMURIUM, Strain/Indicator: YG1029, Metabolic Activation: NONE, Method: STANDARD PLATE active; positive

N#CCc1ccc(Cl)cc1
inactive: [1] inactive; negative | Test System: AMES SALMONELLA TYPHIMURIUM, Strain/Indicator: TA98, Metabolic Activation: RAT, LIVER, S-9, PHENOBARBITAL AND BETA-NAPHTHOFLAVONE, Method: PREINCUBATION inactive; negative | [2] inactive; negative | Test System: AMES SALMONELLA TYPHIMURIUM, Strain/Indicator: TA100, Metabolic Activation: RAT, LIVER, S-9, PHENOBARBITAL AND BETA-NAPHTHOFLAVONE, Method: PREINCUBATION inactive; negative | Test System: AMES SALMONELLA TYPHIMURIUM, Strain/Indicator: TA102, Metabolic Activation: NONE, Method: PREINCUBATION inactive; negative | Test System: AMES SALMONELLA TYPHIMURIUM, Strain/Indicator: TA102, Metabolic Activation: RAT, LIVER, S-9, SODIUM PHENOBARBITAL AND 5,6-BENZOFLAVONE, Method: PREINCUBATION inactive; negative | Test System: AMES SALMONELLA TYPHIMURIUM, Strain/Indicator: TA104, Metabolic Activation: NONE, Method: PREINCUBATION inactive; negative | Test System: AMES SALMONELLA TYPHIMURIUM, Strain/Indicator: TA104, Metabolic Activation: RAT, LIVER, S-9, SODIUM PHENOBARBITAL AND 5,6-BENZOFLAVONE, Method: PREINCUBATION inactive; negative | [3] inactive; negative | Test System: AMES SALMONELLA TYPHIMURIUM, Strain/Indicator: TA1535, Metabolic Activation: RAT, LIVER, S-9, PHENOBARBITAL AND BETA-NAPHTHOFLAVONE, Method: PREINCUBATION inactive; negative | Test System: AMES SALMONELLA TYPHIMURIUM, Strain/Indicator: TA1537, Metabolic Activation: NONE, Method: PREINCUBATION inactive; negative | Test System: AMES SALMONELLA TYPHIMURIUM, Strain/Indicator: TA1537, Metabolic Activation: RAT, LIVER, S-9, PHENOBARBITAL AND BETA-NAPHTHOFLAVONE, Method: PREINCUBATION inactive; negative | Test System: E. COLI, Strain/Indicator: WP2UVRA/PKM101, Metabolic Activation: NONE, Method: PREINCUBATION inactive; negative | Test System: E. COLI, Strain/Indicator: WP2UVRA/PKM101, Metabolic Activation: RAT, LIVER, S-9, PHENOBARBITAL AND BETA-NAPHTHOFLAVONE, Method: PREINCUBATION inactive; negative | Test System: E. COLI, Strain/Indicator: WP2UVRA, Metabolic Activation: NONE, Method: PREINCUBATION inactive; negative | Test System: E. COLI, Strain/Indicator: WP2UVRA, Metabolic Activation: RAT, LIVER, S-9, PHENOBARBITAL AND BETA-NAPHTHOFLAVONE, Method: PREINCUBATION inactive; negative

Cc1nc2ccc(N)c(C)c2nc1C
active: Test System: AMES SALMONELLA TYPHIMURIUM, Strain/Indicator: TA98, Metabolic Activation: RAT, LIVER, S-9, PCB, Method: PREINCUBATION active; positive | Test System: AMES SALMONELLA TYPHIMURIUM, Strain/Indicator: TA100, Metabolic Activation: RAT, LIVER, S-9, PCB, Method: PREINCUBATION active; positive
inactive: [1] inactive; negative | [2] inactive; negative
